Data from PMC3681905, “Anti-Influenza Activity of C60 Fullerene Derivatives” (PLoS ONE, 2013).
pIC50: −log10 of the molar value. Read-outs that look alike come from different tables or passages of the source.

How the values were obtained:
[1] = test system: influenza A virus A/PR/8/34 (H1N1); experiment: microbe, parasite or virus in culture; assay type: cell-based; details: for pIC50: read-out: IC50 H1N1 PR8 strain
[2] = test system: influenza A virus A/Aichi/2/68 (H3N2); experiment: microbe, parasite or virus in culture; assay type: cell-based; details: for pIC50: read-out: IC50 H3N2 Aichi strain
[3] = set-up: method as in PMID 14643333; details: cited from earlier work
[4] = molecular target: PA N-terminal endonuclease domain (residues 1–220) of influenza A RNA polymerase (Influenza A virus, UniProt P03433); experiment: in vitro PA endonuclease assay with recombinant PA endonuclease domain (M13 mp18 digestion, agarose electrophoresis); assay type: biochemical, influenza A virus (A/PR/8/34 (H1N1)); details: Fig. 2C; for inhibition of the digestion of M13 mp18 by the PA endonuclease domain: 10 µM fullerene derivative
Description: For the in vitro PA endonuclease assay, we expressed and purified a recombinant influenza PA endonuclease domain (1–220 residues; Fig. 2A, B) using bacteria as described previously [15]–[17]. For the assay, we incubated 0.1 µM recombinant PA endonuclease domain with 1 or 10 µM of each fullerene derivative (Fig. 2C). The PA endonuclease domain digested M13 mp18 circular single-stranded DNA in vitro (Fig. 2C, lanes 1 and 2) [12]–[16], and we investigated whether any of the fullerene derivatives could inhibit this activity. […] This is the first study to report that fullerene derivatives can inhibit the activity of influenza enzymes. Fullerene derivative no.
The influenza A virus (A/PR/8/34 (H1N1)) RNA polymerase PA plasmid, pBMSA-PA, was obtained from the DNA bank at Riken BioResource Center (Tsukuba, Japan; originally deposited by Susumu Nakada). The cDNA fragment corresponding to the PA N-terminal endonuclease domain (residues 1–220; Fig. 2A) was amplified by polymerase chain reaction (PCR) from pBMSA-PA. The amplified product was subcloned into the pET28a (+) plasmid (Novagen, Madison, WI, USA). The induction of recombinant protein expression was achieved by the addition of isopropyl-D-thiogalactopyranoside, and this was followed by purification using Ni^2+-agarose. The recombinant PA endonuclease domain protein was further purified to near homogeneity (Fig. 2B) using a HiTrapQ-FF column (GE Healthcare, Buckinghamshire, UK).
(§1) Influenza A RNA polymerase PA endonuclease activity assays were performed as described by Dias et al. with some modifications [12]–[16]. Briefly, the pH was lowered from 8.0 to 7.3, and 1 µg M13 mp18 single-stranded circular phage DNA was used as the substrate. A total of 0.25 µg recombinant PA endonuclease domain or full-length PA protein were added to 100 µL assay buffer for each reaction (the final concentration of the protein was approximately 0.1 µM). For the fullerene derivative nuclease assay, no PA protein was added at this step. The fullerene derivatives (summarized in Fig. 1) were then added to the reaction, and the products were analyzed by agarose electrophoresis and stained with ethidium bromide.

[5] = test system: M13 mp18 single-stranded circular phage DNA; experiment: fullerene derivative nuclease assay in the absence of PA protein; assay type: biochemical; details: 10 µM; absence of PA endonuclease; M13 mp18 substrate; Fig. 4
[6] = set-up: method as in PMID 14643333; details: cited from earlier work; remark: listed apart in the source
[7] = test system: influenza A virus (A/PR/8/34 (H1N1)); assay type: cell-based; details: 100 µM, A/PR8/34 (H1N1), western blotting
MDCK cells = details: 12.5 to 100 µM, 24 h post-incubation
[8] = molecular target: full-length PA protein of influenza A RNA polymerase (Influenza A virus, UniProt P03433); experiment: in vitro PA endonuclease assay with recombinant full-length PA protein (M13 mp18 digestion); assay type: biochemical, influenza A virus (A/PR/8/34 (H1N1)); details: 10 µM fullerene derivative; Fig. 3C
From the text: We expressed the recombinant full-length PA protein by using a baculovirus to infect Sf9 insect cells (Fig. 3A) and purified it using a Ni-agarose and HiTrap-Q column (Fig. 3B). […] Then, we tested the 12 fullerene derivatives using this same assay. The fullerene derivatives 2–5, 7, 8, 10, and 11 inhibited the endonuclease activity of full-length PA (Fig. 3C), which is consistent with the results for the PA endonuclease domain (Fig. 2C). The M13 mp18 band in the no. 12-treated lane was degraded (Fig. 3C lane 14), the band in the no.
The cDNA fragment corresponding to the full-length protein-coding region of PA was amplified by PCR [38] from pBMSA-PA using the primers PA_start_TOPO ([…]), PA stop ([…]), PA_mid_anti ([…]), and PA_mid_TOPO ([…]). The amplified product was then subcloned into the pENTR/D-TOPO plasmid (Gateway®, Life Technologies™, Carlsbad, CA, USA) using topoisomerase I cloning. The resulting construct was then converted to pDEST10-PA using the clonase (Fig. 3A). The plasmid was transfected into Sf9 insect cells using the helper virus. The resultant baculovirus was again transfected into Sf9 cells. The expressed full-length PA protein was purified using Ni^2+-agarose and a HiTrap Q FF column (GE Healthcare) with the AKTA prime plus system (Fig. 3B).
as §1

[9] = 0.1 µM recombinant PA endonuclease domain
[10] = Influenza A virus, H3N2, MDCK, 24 h

Compound | inhibition of the digestion of M13 mp18 by the PA endonuclease domain [4, 9] | expression levels of influenza A NP and NS1 proteins compared with DMSO-treated cells [7] | pIC50 ([1]; Influenza A virus, MDCK, 24 h) | pIC50 [2, 10] | number of NP-positive cells in comparison with the control (DMSO) [1] | inhibition of the endonuclease activity of full-length PA (M13 mp18 band) [8] | other results
1,1,1′,1′-tetramethyl [60]fullerenodipyrrolidinium diiodide [no. 6] | no or weak inhibitory activity | reduced |  |  |  |  | pIC50 [1]: 4.70; antiviral effects against the influenza A virus (overall conclusion) ([1]; summary of immunostaining and western blotting): strongest antiviral activity; pIC50 [2]: 4.51; antiproliferative activity [3]: antiproliferative and antibacterial activity; mobility shift of M13 mp18 ([4]; lane 13): caused a mobility shift; nuclease activity of the fullerene derivative by itself [5]: significant nuclease activity; antibacterial activity [6]: antiproliferative and antibacterial activity
COC1Cc2cccc(c2)Oc2c(O)cccc2CCc2ccc(cc2)Oc2cc1cc(O)c2O (centres unmarked) [Marchantin E, reference compound] |  | reduced | 4.37 | 4.28 |  |  | cell viability vs DMSO-treated cells (MTT) (MDCK cells): not significantly different
Oc1cc2c(cc1O)CC13c4c5c6c7c8c9c(c%10c%11c1c1c4c4c%12c5c5c6c6c8c8c%13c9c9c%10c%10c%11c%11c1c1c4c4c%12c%12c5c5c6c8c6c8c%13c9c9c%10c%10c%11c1c1c4c4c%12c5c6c5c8c9c%10c1c45)C73C2 (centres unmarked) [no. 1, 1,4-dihydro-6,7-dihydroxy [60]fullerenonaphthlene] | no or weak inhibitory activity | comparable |  |  | comparable | slightly inhibited | IC50 H1N1 PR8 strain [1]: could not be calculated; IC50 H3N2 Aichi strain [2]: could not be calculated; number of NP-positive cells in comparison with the DMSO [2]: comparable; solubility in water (solubility in water): relatively low
O=C(O)CN1C(C(=O)O)C23c4c5c6c7c8c9c(c%10c%11c2c2c4c4c%12c5c5c6c6c8c8c%13c9c9c%10c%10c%11c%11c2c2c4c4c%12c%12c5c5c6c8c6c8c%13c9c9c%10c%10c%11c2c2c4c4c%12c5c6c5c8c9c%10c2c45)C73C1C(=O)O (centres unmarked) [no. 4, 1-carboxymethyl [60]fullerenopyrrolidine-2,5-dicarboxylic acid] |  |  | 4.15 | 4.04 |  |  | 
CC(C)C1NC(C(=O)O)C23c4c5c6c7c8c9c(c%10c%11c2c2c4c4c%12c5c5c6c6c8c8c%13c9c9c%10c%10c%11c%11c2c2c4c4c%12c%12c5c5c6c8c6c8c%13c9c9c%10c%10c%11c2c2c4c4c%12c5c6c5c8c9c%10c2c45)C713 (centres unmarked) [no. 5, 5-isopropyl [60]fullerenopyrrolidine-2-carboxylic acid] |  | reduced | 4.43 | < 4.00 |  |  | 
O=C(O)CN1CCN(CC(=O)O)C23c4c5c6c7c8c9c(c%10c%11c2c2c4c4c%12c5c5c6c6c8c8c%13c9c9c%10c%10c%11c%11c2c2c4c4c%12c%12c5c5c6c8c6c8c%13c9c9c%10c%10c%11c2c2c4c4c%12c5c6c5c8c9c%10c2c45)C713 (centres unmarked) [no. 7, [60]fullerenopiperazine-1,4-diacetic acid] | significantly inhibited | slightly reduced | < 4.00 | < 4.00 |  | inhibited | 
CCN1C(C(=O)O)C23c4c5c6c7c8c9c(c%10c%11c2c2c4c4c%12c5c5c6c6c8c8c%13c9c9c%10c%10c%11c%11c2c2c4c4c%12c%12c5c5c6c8c6c8c%13c9c9c%10c%10c%11c2c2c4c4c%12c5c6c5c8c9c%10c2c45)C73C1C(=O)O (centres unmarked) [no. 9, 1-ethyl [60]fullerenopyrrolidine-2,5-dicarboxylic acid] | no or weak inhibitory activity | comparable |  |  | comparable | slightly inhibited | IC50 H1N1 PR8 strain [1]: could not be calculated; IC50 H3N2 Aichi strain [2]: could not be calculated; number of NP-positive cells in comparison with the DMSO [2]: comparable
CCOC(=O)CN1C(C(=O)O)C23c4c5c6c7c8c9c(c%10c%11c2c2c4c4c%12c5c5c6c6c8c8c%13c9c9c%10c%10c%11c%11c2c2c4c4c%12c%12c5c5c6c8c6c8c%13c9c9c%10c%10c%11c2c2c4c4c%12c5c6c5c8c9c%10c2c45)C73C1C(=O)OCC (centres unmarked) [no. 10, 1-ethoxycarbonylmethyl [60]fullerenopyrrolidine-2,5-dicarboxylic acid 2-ethyl ester] | significantly inhibited | slightly reduced | < 4.00 | < 4.00 | slightly decreased | inhibited | 
O=C(O)C1NC(c2ccccc2)C23c4c5c6c7c8c9c(c%10c%11c2c2c4c4c%12c5c5c6c6c8c8c%13c9c9c%10c%10c%11c%11c2c2c4c4c%12c%12c5c5c6c8c6c8c%13c9c9c%10c%10c%11c2c2c4c4c%12c5c6c5c8c9c%10c2c45)C713 (centres unmarked) [no. 11, 5-phenyl [60]fullerenopyrrolidine-2-carboxylic acid] | significantly inhibited | reduced | 4.36 | < 4.00 | significantly reduced | inhibited | 
CN1CC23c4c5c6c7c8c9c(c%10c%11c2c2c4c4c%12c5c5c6c6c8c8c%13c9c9c%10c%10c%11c%11c2c2c4c4c%12c%12c5c5c6c8c6c8c%13c9c9c%10c%10c%11c2c2c4c4c%12c5c6c5c8c9c%10c2c45)C73C1c1cc[n+](C)cc1 (centres unmarked) [no. 12, 4-(1′-methyl [60]fullerenopyrrolidin-2′-yl)-1-methylpyridinium iodide] |  | slightly reduced |  |  | significantly reduced | degraded | pIC50 [1]: 4.11; pIC50 [2]: 4.20; inhibition of the digestion of M13 mp18 by the PA endonuclease domain ([4]; […]): slightly inhibited; nuclease activity of the fullerene derivative by itself [5]: weaker nuclease activity
[60]fullerenotricyclopropane-1,1,1′,1′,1′′,1′′-hexacarboxylic acid [no. 8] | significantly inhibited | slightly reduced |  |  |  | inhibited | pIC50 [1]: 4.43; pIC50 [2]: < 4.00
